Assay results published in publication PMC10779311, “Antileishmanial Activity, Toxicity and Mechanism of Action of Complexes of Sodium Usnate with Lanthanide Ions: Eu(III), Sm(III), Gd(III), Nd(III), La(III) and Tb(III)” (International Journal of Molecular Sciences, 2023).
Read-outs that look alike come from different tables or passages of the source.

Experiments:
[1] = tested on: L. (L.) amazonensis promastigote forms; assay: In vitro antileishmanial activity on promastigote forms (MTT); type: cell-based, Leishmania (Leishmania) amazonensis; conditions: 72 h
[2] = tested on: L. (L.) amazonensis intracellular amastigotes; assay: In vitro antileishmanial activity on intracellular amastigotes in peritoneal macrophages; type: cell-based, Leishmania (Leishmania) amazonensis; conditions: for IC50: BALB/c peritoneal macrophages, 24 h, Giemsa count, read-out: L. amazonensis Intracellular Amastigotes (Ama.) IC50
Protocol: Peritoneal macrophages were obtained from BALB/c mice in RPMI 1640 culture medium (Sigma-Aldrich® São Paulo, Brazil). After exclusion of inviable cells with trypan blue staining (Sigma-Aldrich® São Paulo, Brazil), cells were transferred to 24-well plates with 13 mm round glass coverslips (10^6 cells/well) and kept at 37 °C/5% CO2. After adhesion for one hour, cells were infected with promastigote forms of L. (L.) amazonensis in the stationary phase (4 × 10^6 cells/well). After 4 h of incubation, samples (complexes 1–7) were added in six replicates (6.25–50.0 µg·mL^−1). […] Coverslips were removed after 24 h, subjected to a dehydration battery with increasing concentrations of acetone: xylol and stained with Giemsa (Sigma-Aldrich®, São Paulo, Brazil) diluted 1:10 in distilled water. After mounting on slides, 200 cells per coverslip were analyzed by light microscopy and the average number of amastigotes/cells was calculated. IC50 was determined using a non-linear dose–response regression curve as described above. The concentrations of complexes were compared by Two-way ANOVA followed by the Tukey test.

[3] = tested on: L. (L.) amazonensis promastigote forms; assay: Flow cytometry for apoptosis and membrane permeability (PE Annexin V / 7-AAD); type: cell-based, Leishmania (Leishmania) amazonensis; conditions: for 7-AAD-stained parasites / An. (PE Annexin V-stained parasites) / An./7-AAD (double stained parasites) / Unst. (unstained parasites): treatment at IC50
From the text: PE Annexin V staining precedes the loss of membrane integrity observed in the final stages of cell death, resulting from either apoptotic or necrotic processes. PE Annexin V is used in conjunction with the vital dye 7-Amino-Actinomycin (7-AAD) to identify early apoptotic cells (7-AAD negative, PE Annexin V positive). Viable cells with intact membranes exclude 7-AAD, but the membranes of dead and damaged cells are permeable to 7-AAD. Cells that are in late apoptosis or already dead are both PE Annexin V and 7-AAD positive. […] Heat-killed parasites (60 °C bath/10 min) were used as positive control, and untreated parasites were used as negative control. Promastigotes were stained with 5 µL of PE Annexin V and 5 µL 7-AAD (PE Annexin V Apoptosis Detection Kit I, BD Biosciences^TM, Franklin Lakes, NJ, USA) and immediately subjected to flow cytometric analysis (BD FACSCanto^TM II). Then, 10,000 events were captured in the region previously determined to correspond to the parasites. Fluorescence was quantified and histograms were generated.

[4] = tested on: NIH/3T3 fibroblasts; assay: Cytotoxicity in mammalian cells (sulforhodamine B); type: cell-based; conditions: 48 h, read-out: Fibroblasts NIH/3T3 (Fib.) IC50
Protocol: The cytotoxic effect of compounds 1–7 was evaluated on NIH/3T3 fibroblasts obtained from the Rio de Janeiro Cell Bank (Duque de Caxias, Brazil). Fibroblasts were seeded at […] in 96-well plates. After 24 h of fixation, cells were incubated for 48 h with 1–7 at 2.5–250 µg·mL^−1, in three replicates. Cell growth was evaluated using the sulforhodamine B colorimetric method, and the optical with absorbances read on the PT-READER microplate instrument (Spectramax 190, Molecular Devices, Sunnyvale, CA, USA) at 540 nm. […] The growth inhibition percentage-GI (%) of each test sample was calculated in Microsoft Office Excel 2007 software. IC50 was determined graphically in the Microcal Origin Version 6.00 program. The selectivity index (SI) was calculated as the ratio between the cytotoxicity on cells (IC50) and the activity on the parasite forms (IC50).

[5] = tested on: L. (L.) amazonensis promastigote forms; assay: Flow cytometry for mitochondrial membrane potential (TMRE); type: cell-based, Leishmania (Leishmania) amazonensis; conditions: for reduction in TMRE labeling (ΔΨm): treatment at IC50, relative to nontreated parasites
[6] = MTT, read-out: L. amazonensis Promastigotes (Pro.) IC50
[7] = Leishmania amazonensis, Peritoneal macrophage, in Mus musculus
[8] = 48 h after treatment at the calculated IC50
[9] = 72 h after treatment at the calculated IC50

Row | SMILES | IC50 [1, 6] | 7-AAD-stained parasites ([3]; 24 h) | An. (PE Annexin V-stained parasites) ([3]; 24 h) | An./7-AAD (double stained parasites) ([3]; 24 h) | Unst. (unstained parasites) ([3]; 24 h) | 7-AAD-stained parasites ([3]; 48 h) | An. (PE Annexin V-stained parasites) ([3]; 48 h) | An./7-AAD (double stained parasites) ([3]; 48 h) | Unst. (unstained parasites) ([3]; 48 h) | 7-AAD-stained parasites ([3]; 72 h) | An. (PE Annexin V-stained parasites) ([3]; 72 h) | An./7-AAD (double stained parasites) ([3]; 72 h) | Unst. (unstained parasites) ([3]; 72 h) | IC50 [4] | IC50 [2] | TMRE-labeled promastigotes [5, 8] | reduction in TMRE labeling (ΔΨm) ([5]; 72 h) | TMRE-labeled promastigotes [5, 9] | also measured
1 | N=C(N)c1ccc(OCCCCCOc2ccc(C(=N)N)cc2)cc1 [Pentamidine, reference compound] | 1490 nM |  |  |  |  |  |  |  |  |  |  |  |  |  |  |  |  |  | IC50 ([1]; Leishmania amazonensis, read-out: L. amazonensis Promastigotes (Pro.) IC50, 72 h, MTT): 1500 nM; IC50 [2, 7]: 920 nM
2 | C[C@@H]1[C@H](O)[C@@H](C)/C=C/C=C/C=C/C=C/C=C/C=C/C=C/[C@H](O[C@@H]2O[C@H](C)[C@@H](O)[C@H](N)[C@@H]2O)C[C@@H]2O[C@](O)(C[C@@H](O)C[C@@H](O)[C@H](O)CC[C@@H](O)C[C@@H](O)CC(=O)O[C@H]1C)C[C@H](O)[C@H]2C(=O)O [Amphotericin B, reference compound] |  |  |  |  |  |  |  |  |  |  |  |  |  |  |  |  |  |  | IC50 ([1]; Leishmania amazonensis, MTT, read-out: L. amazonensis Promastigotes (Pro.) IC50): 145 nM; IC50 [2, 7]: 198 nM
3 | CC(=O)C1=C([O-])C=C2Oc3c(C(C)=O)c(O)c(C)c(O)c3C2(C)C1=O.CC(=O)C1=C([O-])C=C2Oc3c(C(C)=O)c(O)c(C)c(O)c3C2(C)C1=O.CC(=O)C1=C([O-])C=C2Oc3c(C(C)=O)c(O)c(C)c(O)c3C2(C)C1=O.O.O.O.[Gd+3] (stereo not drawn) [GdL3·3H2O 3] | 1500 nM | 0.4% | 0.7% | 0.6% | 98.4% | 12.7% | 2.4% | 6% | 78.8% | 3.2% | 2.6% | 7.4% | 86.8% | 26500 nM | 5520 nM | 46.8% | 24.5% | 59.2% | reduction in cell viability ([3]; 48 h after treatment at IC50): 17.4%; reduction in TMRE labeling (ΔΨm) ([5]; 48 h): 36.2%
4 | CC(=O)C1=C([O-])C=C2Oc3c(C(C)=O)c(O)c(C)c(O)c3C2(C)C1=O.CC(=O)C1=C([O-])C=C2Oc3c(C(C)=O)c(O)c(C)c(O)c3C2(C)C1=O.CC(=O)C1=C([O-])C=C2Oc3c(C(C)=O)c(O)c(C)c(O)c3C2(C)C1=O.O.O.O.O.[Sm+3] (stereo not drawn) [SmL3·4H2O 2] | 1260 nM | 10.2% | 3.1% | 5.5% | 81.2% | 2.8% | 1.7% | 3.4% | 92.1% | 4.0% | 2.5% | 7.6% | 85.8% | 20000 nM | 5230 nM | 43.5% | 41.7% | 45.7% | reduction in viability ([3]; 24 h after treatment at IC50): 17.2%; reduction in TMRE labeling (ΔΨm) ([5]; 48 h): 40.7%
5 | CC(=O)C1=C([O-])C=C2Oc3c(C(C)=O)c(O)c(C)c(O)c3C2(C)C1=O.CC(=O)C1=C([O-])C=C2Oc3c(C(C)=O)c(O)c(C)c(O)c3C2(C)C1=O.CC(=O)C1=C([O-])C=C2Oc3c(C(C)=O)c(O)c(C)c(O)c3C2(C)C1=O.O.O.O.[La+3] (stereo not drawn) [LaL3·3H2O 7] | 1490 nM | 0.4% | 0.7% | 0.5% | 98.3% | 1.6% | 1.8% | 3.3% | 93.3% | 5.6% | 2.4% | 10.0% | 82.0% | 10900 nM | 4580 nM | 76.0% | 22.3% | 82.0% | Intracellular amastigote activity, arbitrary scale ([2]; class by IC50): active
6 | CC(=O)C1=C([O-])C=C2Oc3c(C(C)=O)c(O)c(C)c(O)c3C2(C)C1=O.CC(=O)C1=C([O-])C=C2Oc3c(C(C)=O)c(O)c(C)c(O)c3C2(C)C1=O.CC(=O)C1=C([O-])C=C2Oc3c(C(C)=O)c(O)c(C)c(O)c3C2(C)C1=O.O.O.[Tb+3] (stereo not drawn) [TbL3·2H2O 6] | 2.3 nM | 0.2% | 0.8% | 0.6% | 98.3% | 1.2% | 1.3% | 3.0% | 94.5% | 6.4% | 2.6% | 10.1% | 80.9% | 17500 nM | 7520 nM | 70.2% |  | 69.5% | 
7 | CC(=O)C1=C([O-])C=C2Oc3c(C(C)=O)c(O)c(C)c(O)c3C2(C)C1=O.CC(=O)C1=C([O-])C=C2Oc3c(C(C)=O)c(O)c(C)c(O)c3C2(C)C1=O.CC(=O)C1=C([O-])C=C2Oc3c(C(C)=O)c(O)c(C)c(O)c3C2(C)C1=O.O.O.O.[Nd+3] (stereo not drawn) [NdL3·3H2O 5] | 910 nM | 0.3% | 0.7% | 0.5% | 98.4% | 1.6% | 1.4% | 3.3% | 93.8% | 7.7% | 2.5% | 10.0% | 79.8% | 19700 nM | 2830 nM | 70.1% | 11.35% | 60.9% | 
